Test results published in US10501479B2, “Benzenesulfonyl-asymmetric ureas and medical uses thereof” (HELSINN HEALTHCARE SA, priority 2016, dated 2019).

Tests used:
[1] = target: T1, GHSR-1a (HEK293/GHSR1a cell line) (Homo sapiens, UniProt Q92847); test: Ghrelin antagonist potency (IC50) with calcium FLIPR assay, ghrelin 10 nM; format: cell-based; conditions: HEK293/GHSR1a, ghrelin 10 nM, read-out: Activity IC50 (ghrelin antagonist potency)
T1 construct: expressed in transfected cells; host or cells: HEK293/GHSR1a cell line
T1 sequence (Q92847 whole entry): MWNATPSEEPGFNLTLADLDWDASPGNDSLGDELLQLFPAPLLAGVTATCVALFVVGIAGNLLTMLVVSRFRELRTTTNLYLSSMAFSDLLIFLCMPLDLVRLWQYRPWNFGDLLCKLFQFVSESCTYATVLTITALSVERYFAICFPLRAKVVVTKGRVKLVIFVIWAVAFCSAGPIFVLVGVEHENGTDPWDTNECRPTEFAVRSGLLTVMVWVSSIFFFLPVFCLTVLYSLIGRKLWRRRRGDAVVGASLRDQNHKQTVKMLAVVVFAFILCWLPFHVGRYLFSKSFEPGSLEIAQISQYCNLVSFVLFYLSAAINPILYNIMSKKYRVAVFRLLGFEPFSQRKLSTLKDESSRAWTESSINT
In short: (§1)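 The cells were plated a day ahead and loaded with a calcium-sensitive dye. Test compound was then added and incubated 15 min, followed by ghrelin. Antagonist potency was calculated from inhibition of the response to 10 nM ghrelin, and agonist potency from the calcium rise caused by compound alone.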

[2] = target: T2, recombinant human ghrelin receptor (HEK293/GRLN) (Homo sapiens, UniProt Q92847); test: Ghrelin inverse agonist potency (EC50) with IP-1 (IP-One HTRF) assay; format: cell-based; conditions: IP-1 assay, HEK293/GRLN; read-out: Activity EC50 (ghrelin inverse agonist potency)
T2 construct: expressed in transfected cells
T2 sequence (Q92847 whole entry): as above
In short: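 IP-1 accumulation was measured by HTRF (IP1-d2/Tb-cryptate, 620/665 nm read after 1 hour at room temperature) following 1 hour of compound treatment at 37° C. Cells were HEK293 stably expressing human ghrelin receptor, plated a day earlier on Matrigel. Inverse agonist potency was reported as EC50.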

[3] = Metabolic stability in mouse liver microsomes; format: in vitro ADME
In short: (§2)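 First, microsomes and compound are preincubated 5 min at 37 °C in pH 7.4 phosphate buffer. Next, an NADPH regenerating system starts the reaction. Then aliquots are quenched cold at 10, 30 and 90 min, centrifuged and analysed by LC-MS/MS.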

[4] = target: T1, GHSR-1a (HEK293/GHSR1a cell line); test: Ghrelin agonist potency (EC50) with calcium FLIPR assay; format: cell-based; conditions: HEK293/GHSR1a, read-out: Activity EC50/EMax: EC50 (ghrelin agonist potency)
In short: as §1

[5] = Metabolic stability in human liver microsomes; format: in vitro ADME
In short: as §2

SMILES | IC50 [1] | EC50 [2] | Metabolic Stability Study M = mouse [3] | EC50 [4] | Metabolic Stability Study H = human [5]
C[C@@H](NC(=O)Nc1ccc(S(=O)(=O)Cc2ccc3c(c2)CCN(C)C3)cc1)c1cccc(Cl)c1Cl [H1343, (R)-1-(1-(2,3-dichlorophenyl)ethyl)-3-(4-(((2-methyl-1,2,3,4-tetrahydroisoquinolin-6-yl)methyl)sulfonyl)phenyl)urea] | 0.0052 µM | 0.0021 µM | 252.4 µL/min/mg | > 30 µM | 71.9 µL/min/mg
CC(NC(=O)Nc1ccc(S(=O)(=O)Cc2ccc3c(c2)CCN(C)C3)cc1)c1ccccc1Cl (stereo not drawn) [H1344, 1-(1-(2-chlorophenyl)ethyl)-3-(4-(((2-methyl-1,2,3,4-tetrahydroisoquinolin-6-yl)methyl)sulfonyl)phenyl)urea] | 0.0044 µM | 0.0041 µM | 115.7 µL/min/mg | > 30 µM | 53.5 µL/min/mg
CC(NC(=O)Nc1ccc(S(=O)(=O)Cc2ccc3c(c2)CCN(C)C3)cc1)c1cccc(F)c1F (stereo not drawn) [H1345, 1-(1-(2,3-difluorophenyl)ethyl)-3-(4-(((2-methyl-1,2,3,4-tetrahydroisoquinolin-6-yl)methyl)sulfonyl)phenyl)urea] | 0.0052 µM | 0.0042 µM | 166.2 µL/min/mg | > 30 µM | 86.5 µL/min/mg
CC(NC(=O)Nc1ccc(S(=O)(=O)Nc2ccc3c(c2)CCN(C)C3)cc1)c1cccc(F)c1F (stereo not drawn) [H1346, 4-(3-(1-(2,3-difluorophenyl)ethyl)ureido)-N-(2-methyl-1,2,3,4-tetrahydroisoquinolin-6-yl)benzenesulfonamide] | 0.0191 µM | 0.00698 µM | 69.3 µL/min/mg | > 30 µM | 72.9 µL/min/mg
CC(NC(=O)Nc1ccc(S(=O)(=O)Nc2ccc3c(c2)CCN(C)C3)cc1)c1ccccc1F (stereo not drawn) [H1347, 4-(3-(1-(2-fluorophenyl)ethyl)ureido)-N-(2-methyl-1,2,3,4-tetrahydroisoquinolin-6-yl)benzenesulfonamide] | 0.0262 µM | 0.00795 µM | 58.1 µL/min/mg | > 30 µM | 59.9 µL/min/mg
C[C@@H](NC(=O)Nc1ccc(S(=O)(=O)Cc2cc(F)c3c(c2)CN(C)C3)cc1)c1ccccc1 [H1355, (R)-1-(4-(((7-fluoro-2-methylisoindolin-5-yl)methyl)sulfonyl)phenyl)-3-(1-phenylethyl)urea] | 0.041 µM | 0.0129 µM | 304.3 µL/min/mg | > 30 µM | 153.5 µL/min/mg
CC(NC(=O)Nc1ccc(S(=O)(=O)Cc2cc3c(s2)CCN(C)C3)cc1)c1cccc(Cl)c1Cl (stereo not drawn) [H1359, 1-(1-(2,3-dichlorophenyl)ethyl)-3-(4-(((5-methyl-4,5,6,7-tetrahydrothieno[3,2-c]pyridin-2-yl)methyl)sulfonyl)phenyl)urea] | 0.0015 µM | 0.004 µM | H = 108.6 M = 108.6 R = not reported D = not reported μL/min/mg | > 30 µM | H = 108.6 M = 108.6 R = not reported D = not reported μL/min/mg
C[C@@H](NC(=O)Nc1ccc(S(=O)(=O)Cc2ccc3c(c2F)CN(C)C3)cc1)c1ccccc1 [H1363, (R)-1-(4-(((4-fluoro-2-methylisoindolin-5-yl)methyl)sulfonyl)phenyl)-3-(1-phenylethyl)urea] | 0.0084 µM | 0.00315 µM | 335.3 µL/min/mg | > 30 µM | 140.1 µL/min/mg
C[C@@H](NC(=O)Nc1ccc(S(=O)(=O)Nc2ccnc(N)n2)cc1)c1cccc(Cl)c1Cl [H1364, (R)-N-(2-aminopyrimidin-4-yl)-4-(3-(1-(2,3-dichlorophenyl)ethyl)ureido) benzenesulfonamide] | 0.0296 µM | 0.13 µM | 36 µL/min/mg | > 30 µM | < 10 µL/min/mg
CC(NC(=O)Nc1ccc(S(=O)(=O)Cc2cc3c(s2)CN(C)CC3)cc1)c1cccc(Cl)c1Cl (stereo not drawn) [H1384, 1-(1-(2,3-dichlorophenyl)ethyl)-3-(4-(((6-methyl-4,5,6,7-tetrahydrothieno[2,3-c]pyridin-2-yl)methyl)sulfonyl)phenyl)urea] | 0.00595 µM | 0.0024 µM | 165.1 µL/min/mg | > 30 µM | 95.1 µL/min/mg
CC(NC(=O)Nc1ccc(S(=O)(=O)Cc2cc3c(cc2F)CNCC3)cc1)c1cccc(Cl)c1Cl (stereo not drawn) [H1385, 1-(1-(2,3-dichlorophenyl)ethyl)-3-(4-(((7-fluoro-1,2,3,4-tetrahydroisoquinolin-6-yl)methyl)sulfonyl)phenyl)urea] | 0.00398 µM | 0.0065 µM | H = <10 M = <10 μL/min/mg | > 30 µM | H = <10 M = <10 μL/min/mg
COc1cc(S(=O)(=O)Cc2ccc3c(c2)CCNC3)ccc1NC(=O)NC(C)c1ccccc1 (stereo not drawn) [H1386, 1-(2-methoxy-4-(((1,2,3,4-tetrahydroisoquinolin-6-yl)methyl)sulfonyl)phenyl)-3-(1-phenylethyl)urea] | 0.0212 µM | 0.0117 µM | 11 µL/min/mg | > 30 µM | < 10 µL/min/mg
COc1cc(S(=O)(=O)Cc2ccc3c(c2)CCN(C)C3)ccc1NC(=O)NC(C)c1ccccc1 (stereo not drawn) [H1387, 1-(2-methoxy-4-(((2-methyl-1,2,3,4-tetrahydroisoquinolin-6-yl)methyl)sulfonyl)phenyl)-3-(1-phenylethyl)urea] | 0.0074 µM | 0.0037 µM | 167.5 µL/min/mg | > 30 µM | 86.7 µL/min/mg
CC(NC(=O)Nc1ccc(S(=O)(=O)Cc2ccc3c(c2)CNC3)cc1F)c1ccccc1F.Cl (stereo not drawn) [H1389, 1-(2-fluoro-4-((isoindolin-5-ylmethyl)sulfonyl)phenyl)-3-(1-(2-fluorophenyl)ethyl)urea] | 0.0276 µM | 0.0151 µM | 21.2 µL/min/mg | > 30 µM | 21.3 µL/min/mg
COc1ccccc1C(C)NC(=O)Nc1ccc(S(=O)(=O)Cc2ccc3c(c2)CNC3)cc1F.Cl (stereo not drawn) [H1390, 1-(2-fluoro-4-((isoindolin-5-ylmethyl)sulfonyl)phenyl)-3-(1-(2-methoxyphenyl)ethyl)urea] | 0.0364 µM | 0.0107 µM | 55.9 µL/min/mg | > 30 µM | 34.6 µL/min/mg
CC(NC(=O)Nc1ccc(S(=O)(=O)Cc2ccc3c(c2)CNC3)cc1)c1c(F)cccc1F (stereo not drawn) [H1391, 1-(1-(2,6-difluorophenyl)ethyl)-3-(4-((isoindolin-5-ylmethyl)sulfonyl)phenyl)urea] | 0.0105 µM | 0.0072 µM | 11.8 µL/min/mg | > 30 µM | 14.8 µL/min/mg
COc1cc(S(=O)(=O)Cc2ccc3c(c2)CNC3)ccc1NC(=O)NC(C)c1ccccc1OC (stereo not drawn) [H1393, 1-(4-((isoindolin-5-ylmethyl)sulfonyl)-2-methoxyphenyl)-3-(1-(2-methoxyphenyl)ethyl)urea] | 0.0092 µM | 0.00373 µM | 55.1 µL/min/mg | > 30 µM | 55.5 µL/min/mg
C[C@@H](NC(=O)Nc1ccc(S(=O)(=O)Cc2cc(F)c3c(c2)CNC3)cc1)c1ccccc1.Cl [H1394, (R)-1-(4-(((7-fluoroisoindolin-5-yl)methyl)sulfonyl)phenyl)-3-(1-phenylethyl)urea] | 0.0519 µM | 0.0078 µM | 182.5 µL/min/mg | > 30 µM | 67.4 µL/min/mg
C[C@@H](NC(=O)Nc1ccc(S(=O)(=O)Cc2ccc3c(c2F)CNC3)cc1)c1ccccc1 [H1396, (R)-1-(4-(((4-fluoroisoindolin-5-yl)methyl)sulfonyl)phenyl)-3-(1-phenylethyl)urea] | 0.0108 µM | 0.0013 µM | 330.4 µL/min/mg | > 30 µM | 62.5 µL/min/mg
CC1c2ccccc2CCN1C(=O)Nc1ccc(S(=O)(=O)Cc2ccc3c(c2)CNC3)cc1 (stereo not drawn) [H1397, N-(4-((isoindolin-5-ylmethyl)sulfonyl)phenyl)-1-methyl-3,4-dihydroisoquinoline-2(1H)-carboxamide] | 1.1 µM | 0.0678 µM | 32 µL/min/mg | > 30 µM | 35.1 µL/min/mg
COc1cc(S(=O)(=O)Cc2ccc3c(c2)CNC3)ccc1NC(=O)N(C)C(C)c1ccccc1 (stereo not drawn) [H1398, 3-(4-((isoindolin-5-ylmethyl)sulfonyl)-2-methoxyphenyl)-1-methyl-1-(1-phenylethyl)urea] | 0.629 µM | 0.0626 µM | 80.5 µL/min/mg | > 30 µM | 52.9 µL/min/mg
